Source: patent US20200079757A1, “COMPOUNDS FOR THE TREATMENT OF RESPIRATORY DISEASES” (THE UNIVERSITY OF MELBOURNE, priority 2017, published 2020)

System: Bleomycin Model of Pulmonary Fibrosis
Test: Bleomycin model of pulmonary fibrosis: BAL protein, BAL cells, lung gene expression
Assay type: in vivo, mouse
Settings: female C57BI/6 mice; for bleomycin-induced BAL cell number / bleomycin-induced BAL protein: day −1 to 3
Procedure: All animal experiments were carried out in accordance with ethical guidelines from the University of Melbourne Animal Ethics Committee (AEEC #1513736.1). Six- to 8-week old 20-25 g C57BI/6 mice (ARC, Perth, Australia) received treatment with 35 μL of saline or bleomycin (105 mU per mouse) on day 0 through intranasal administration, as previously described (Langenbach et al., (2007). Can J Physiol Pharmacol, 85, 727-738). Acute and chronic bleomycin mouse models were used to assess the effect of SS9-010 on pulmonary fibrosis in vivo. SS9-010 was administered systemically through intraperitoneal injection or locally to the lungs through inhalation of an aerosol generated using an oxygen concentrator connected to a hudson nebuliser operating at 5 L/min for 15 minutes. […] Mice were allowed food and water ad libitum for the duration of all studies. At the end of each study, bronchoalveolar lavage (BAL) was performed from which leukocyte cell types were enumerated and acelluar protein content was determined as previously described (Langenbach, et al., 2007), lungs were dissected and snap frozen. Gene expression were determined from pulverised frozen lung tissue. Total protein content in acellular BAL fluid was assessed using the BioRad protein assay method. BAL cells in BAL fluid were stained with Erythrosin B (EB) and counted manually with the aid of a hemocytometer. Total BAL cell number was calculated by accounting for the return volume of BAL fluid. The effects of inhaled SS9-010 on bleomycin-induced BAL protein leakage, BAL cell recruitment, lung weight, as well as lung fibrogenic gene expression in mouse lungs are shown in FIG. 9. Female C57BI/6 mice received a transnasal dose of bleomycin or saline on day 0. SS9-010 was administered day −1 to day 3 by daily inhalation of aerosol generated by nebulizing from a concentration of 1 mg/mL for a period of 15 min once daily. Bronchoalveolar lavage (BAL) protein and BAL cell number were assessed. Lung fibrogenic gene expression was also assessed on day 3. Data are presented as mean±SEM (n=6). […] The effects of intraperitoneal injection of SS9-010 on bleomycin-induced BAL protein leakage, BAL cell recruitment, and lung fibrogenic gene expression in mouse lungs are shown in FIG. 10. Female C57BI/6 mice were […] administered bleomycin or saline on day 0. SS9-010 (3 or 10 mg/kg/day, ip) was administered from day −1 to 3. […] Lung fibrogenic gene expression was also assessed on day 3. Data are presented as mean±SEM (n=4 sal, n=5 other groups). Systemic SS9-010 (3 or 10 mg/kg/day, ip) had no effect on BAL protein or BAL cell number. Induction of IL-6 was reduced by SS9-010 treatment, whereas arginase-1 was not.

[1] = inhaled aerosol 1 mg/mL 15 min once daily

## CNc1nccc(-c2c(-c3ccc(F)cc3)ncn2C2CCCCC2)n1 [SS9-010, 4-(1-Cyclohexyl-4-(4-fluorophenyl)-1H-imidazol-5-yl)-N-methylpyrimidin-2-amine]
3 or 10 mg/kg/day ip, day 3
  induction of IL-6 (lung gene expression): reduced
3 or 10 mg/kg/day ip
  bleomycin-induced BAL cell number: no effect
  bleomycin-induced BAL protein: no effect
[1]
  bleomycin-induced BAL cell number: modest suppression
  bleomycin-induced BAL protein: showed an effect
Inhaled aerosol 1 mg/mL 15 min once daily, day −1 to 3, assessed day 3
  lung fibrogenic gene expression: showed an effect
